Where two headings read alike, the source gives them in different places.

The text below walks through data of US8148391B2 (Cephalon, Inc., priority 2006, dated 2012).

Assay [1] addresses T1, baculovirus-expressed ALK (Homo sapiens, UniProt Q9UM73).
T1 construct: host or cells: baculovirus expression system
The experiment in a line: ALK Kinase Assay (ELISA-type, time-resolved fluorescence). Type of assay: biochemical. A digest of the protocol:
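Wells were coated with phospholipase C-γ at 10 μg/mL in Tris-buffered saline. Adding 30 ng/ml enzyme started the reaction, which ran at 37° C for 15 minutes before Eu-N1 PT66 antibody detection. Percent inhibition versus log10 concentration gave IC50 by variable-slope fit.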
For orientation: In an ELISA, binding on a coated surface is turned into a signal by an enzyme label.

Assay [2] addresses T2, c-Met (cytoplasmic domain) (Homo sapiens, UniProt P08581).
T2 construct: 10 ng/mL c-Met (cytoplasmic domain, Invitrogen Corporation #PV3143); purchased Invitrogen Corporation PV3143
The experiment in a line: c-Met Kinase Assay (same methods as for ALK, with modifications). Format: biochemical. A digest of the protocol: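 Steps: coat wells with PLC-γ (10 μg/mL, Tris-buffered saline); add 10 ng/mL c-Met cytoplasmic domain to initiate; incubate 15 min, 37° C; detect phosphoproduct via Eu-N1 PT66 antibody.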

Where [3] appears, read: ALK kinase inhibition, 1 μM ATP, read-out: ALK Activity.
Setting [4] is: c-Met kinase inhibition, 1 μM ATP, read-out: cMet Activity.
The mark [5] stands for this setting: 1 μM ATP (Km level), 30 ng/ml ALK, 37° C., 15 minutes, read-out: ALK Activity (ALK kinase inhibition, IC50 class).
Where [6] appears, read: 1 μM ATP (Km level), 10 ng/mL c-Met, read-out: cMet Activity (c-Met kinase inhibition, IC50 class).
Where [7] appears, read: 1 μM ATP (Km level), read-out: ALK Activity (ALK Kinase Inhibition, IC50).
The mark [8] stands for this setting: 1 μM ATP (Km level), read-out: cMet Activity (c-Met Kinase Inhibition, IC50).
Where [9] appears, read: ALK kinase inhibition, 1 μM ATP (Km level), read-out: ALK Activity.
The mark [10] stands for this setting: c-Met kinase inhibition, 1 μM ATP (Km level), read-out: cMet Activity.

T1 sequence (Q9UM73 19-1620): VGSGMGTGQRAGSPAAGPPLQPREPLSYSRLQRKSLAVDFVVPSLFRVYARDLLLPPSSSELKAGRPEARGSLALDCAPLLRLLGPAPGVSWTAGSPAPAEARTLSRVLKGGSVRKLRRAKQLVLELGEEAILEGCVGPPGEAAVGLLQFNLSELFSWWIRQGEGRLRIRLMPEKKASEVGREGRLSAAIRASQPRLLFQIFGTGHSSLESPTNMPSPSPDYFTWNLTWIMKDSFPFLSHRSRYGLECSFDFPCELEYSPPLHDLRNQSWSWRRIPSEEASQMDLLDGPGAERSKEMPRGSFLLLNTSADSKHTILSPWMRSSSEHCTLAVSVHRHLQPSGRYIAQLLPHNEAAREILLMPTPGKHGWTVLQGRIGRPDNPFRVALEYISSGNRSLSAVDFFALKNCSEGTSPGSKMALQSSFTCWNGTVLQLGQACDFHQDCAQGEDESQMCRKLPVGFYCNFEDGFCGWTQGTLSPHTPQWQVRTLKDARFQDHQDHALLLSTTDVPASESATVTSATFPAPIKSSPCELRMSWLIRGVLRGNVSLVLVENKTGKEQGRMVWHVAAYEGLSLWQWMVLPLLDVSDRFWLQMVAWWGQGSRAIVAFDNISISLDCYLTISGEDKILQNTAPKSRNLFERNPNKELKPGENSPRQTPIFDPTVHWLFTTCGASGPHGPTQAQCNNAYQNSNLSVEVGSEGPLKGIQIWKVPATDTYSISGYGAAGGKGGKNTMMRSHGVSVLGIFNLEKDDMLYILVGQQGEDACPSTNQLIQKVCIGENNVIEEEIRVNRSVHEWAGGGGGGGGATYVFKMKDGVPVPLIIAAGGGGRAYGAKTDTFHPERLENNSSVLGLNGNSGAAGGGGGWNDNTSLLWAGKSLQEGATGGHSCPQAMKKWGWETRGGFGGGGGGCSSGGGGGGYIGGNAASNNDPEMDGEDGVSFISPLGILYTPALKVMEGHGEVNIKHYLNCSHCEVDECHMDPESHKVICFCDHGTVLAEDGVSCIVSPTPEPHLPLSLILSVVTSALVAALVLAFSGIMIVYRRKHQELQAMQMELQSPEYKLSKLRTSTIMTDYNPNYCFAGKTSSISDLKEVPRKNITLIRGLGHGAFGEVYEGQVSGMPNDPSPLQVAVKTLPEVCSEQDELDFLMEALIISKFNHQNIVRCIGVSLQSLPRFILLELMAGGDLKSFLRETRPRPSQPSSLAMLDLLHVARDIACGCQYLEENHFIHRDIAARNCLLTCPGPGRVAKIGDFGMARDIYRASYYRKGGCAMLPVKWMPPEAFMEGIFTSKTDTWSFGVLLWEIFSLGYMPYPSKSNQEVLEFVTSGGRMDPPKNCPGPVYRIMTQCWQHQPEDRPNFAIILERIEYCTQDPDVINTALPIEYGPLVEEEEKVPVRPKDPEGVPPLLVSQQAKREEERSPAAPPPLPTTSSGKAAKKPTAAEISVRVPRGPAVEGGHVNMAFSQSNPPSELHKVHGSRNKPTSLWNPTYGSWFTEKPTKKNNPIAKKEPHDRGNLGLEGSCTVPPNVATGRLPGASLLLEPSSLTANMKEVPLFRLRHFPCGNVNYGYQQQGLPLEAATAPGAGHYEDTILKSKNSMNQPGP
T2 sequence (P08581 956-1390 limits assumed): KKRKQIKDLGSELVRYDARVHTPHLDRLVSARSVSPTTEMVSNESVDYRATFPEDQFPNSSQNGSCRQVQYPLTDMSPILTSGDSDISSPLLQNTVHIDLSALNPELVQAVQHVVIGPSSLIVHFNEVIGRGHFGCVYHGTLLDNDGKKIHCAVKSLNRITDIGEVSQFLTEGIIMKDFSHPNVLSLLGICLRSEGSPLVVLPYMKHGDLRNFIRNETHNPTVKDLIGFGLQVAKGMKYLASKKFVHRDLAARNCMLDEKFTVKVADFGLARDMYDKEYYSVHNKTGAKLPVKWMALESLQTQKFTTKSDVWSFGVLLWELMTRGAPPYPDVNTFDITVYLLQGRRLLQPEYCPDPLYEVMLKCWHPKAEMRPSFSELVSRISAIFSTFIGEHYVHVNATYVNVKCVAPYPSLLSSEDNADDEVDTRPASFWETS

Take `CCN1CC(=O)Nc2cc(Nc3ncc(Cl)c(Nc4ccc(OC)cc4-n4cccn4)n3)c(OC)cc2C1` [Example 1662, 8-[5-Chloro-4-(4-methoxy-2-pyrazol-1-yl-phenylamino)-pyrimidin-2-ylamino]-4-ethyl-7-methoxy-1,3,4,5-tetrahydro-benzo[e][1,4]diazepin-2-one]: the values for the IC50 in assay [1] (setting [3]) and in assay [2] (setting [4]) were < 100 nM and > 10000 nM, respectively.

Take `COCCN1CCCC(C)(C)c2ccc(Nc3ncc(Cl)c(N[C@H]4[C@@H](C(N)=O)[C@@H]5C=C[C@H]4C5)n3)cc21` [Example 1600, (1S,2S,3R,4R)-3-{5-Chloro-2-[1-(2-methoxy-ethyl)-5,5-dimethyl-2,3,4,5-tetrahydro-1H-benzo[b]azepin-8-ylamino]-pyrimidin-4-ylamino}-bicyclo[2.2.1]hept-5-ene-2-carboxylic acid amide]: the results for the IC50 in assay [1] (setting [3]) and in assay [2] (setting [4]) were < 100 nM and 100 to 1000 nM, respectively.

In the case of `CCN1C(=O)CCCc2c1ccc(Nc1ncc(Cl)c(Nc3ccc(N4CCN(C)CC4)cc3OC)n1)c2OC` [Example 1311, 7-{5-Chloro-4-[2-methoxy-4-(4-methyl-piperazin-1-yl)-phenylamino]-pyrimidin-2-ylamino}-1-ethyl-6-methoxy-1,3,4,5-tetrahydro-benzo[b]azepin-2-one], the IC50 in assay [1] (setting [5]) was < 100 nM; in assay [2] (setting [6]), > 10000 nM.

Turning to `CCN1CC(=O)N(C)c2cc(Nc3ncc(Cl)c(Nc4ccc(OC)c(CNCCO)c4)n3)c(OC)cc2C1` [Example 749, 8-(5-Chloro-4-{3-[(2-hydroxy-ethylamino)-methyl]-4-methoxy-phenylamino}-pyrimidin-2-ylamino)-4-ethyl-7-methoxy-1-methyl-1,3,4,5-tetrahydro-benzo[e][1,4]diazepin-2-one], the IC50 in assay [1] (setting [7]) is 100 to 1000 nM; in assay [2] (setting [8]), > 10000 nM.

Regarding `COCCN1C(=O)CCCc2c1ccc(Nc1ncc(Cl)c(Nc3ccc(N4CCOCC4)cc3OC)n1)c2OC` [Example 127, 7-[5-Chloro-4-(2-methoxy-4-morpholin-4-yl-phenylamino)-pyrimidin-2-ylamino]-6-methoxy-1-(2-methoxy-ethyl)-1,3,4,5-tetrahydro-benzo[b]azepin-2-one], the IC50 is < 100 nM in assay [1] (setting [9]) and > 10000 nM in assay [2] (setting [10]).

With `COCCN1CCc2ccc(Nc3ncc(Cl)c(Nc4ccccc4OCC#N)n3)cc2CC1` [Example 1240, (2-{5-Chloro-2-[3-(2-methoxy-ethyl)-2,3,4,5-tetrahydro-1H-3-benzazepin-7-ylamino]-pyrimidin-4-ylamino}-phenoxy)-acetonitrile], the IC50 in assay [1] (setting [5]) and in assay [2] (setting [6]) was < 100 nM each time.

`CCN1C(=O)OCCc2cc(Nc3ncc(Cl)c(Nc4ccccc4C(=O)NC)n3)ccc21` [Example 1745, 2-[5-chloro-2-(5-ethyl-6-oxo-5,6,8,9-tetrahydro-7-oxa-5-aza-benzocyclohepten-2-ylamino)-pyrimidin-4-ylamino]-N-methyl-benzamide]: the IC50 in assay [1] (setting [3]) and in assay [2] (setting [4]) was < 100 nM in each case.

For `CCN1C(=O)[C@H](NC(=O)COC)CCc2c1ccc(Nc1ncc(Cl)c(N[C@H]3[C@@H](C(N)=O)[C@@H]4C=C[C@H]3C4)n1)c2OC` (single isomer, unassigned) [Example 1350], the IC50 in assay [1] (setting [5]) was < 100 nM; in assay [2] (setting [6]), > 10000 nM.

Turning to `COCCN1CCc2cc(Nc3ncc(Cl)c(Nc4ccccc4-n4cccn4)n3)c(OC)cc2CC1` [Example 1321, 5-Chloro-N*2*-[8-methoxy-3-(2-methoxy-ethyl)-2,3,4,5-tetrahydro-1H-benzo[d]azepin-7-yl]-N*4*-(2-pyrazol-1-yl-phenyl)-pyrimidine-2,4-diamine], the IC50 in assay [1] (setting [5]) was < 100 nM; in assay [2] (setting [6]), > 10000 nM.

Take `O=C1CCCc2ccc(Nc3ncc(Cl)c(Nc4ccccc4S(=O)(=O)N4CCCC4)n3)cc2N1` [Example 1731, 8-{5-Chloro-4-[2-(pyrrolidine-1-sulfonyl)-phenylamino]-pyrimidin-2-ylamino}-1,3,4,5-tetrahydro-benzo[b]azepin-2-one]: the IC50 in assay [1] (setting [3]) and in assay [2] (setting [4]) was < 100 nM throughout.

For the compound `CNC(=O)c1ccccc1Nc1nc(Nc2ccc3c(c2)C2CCC(C3)N2C(=O)C2CC2)ncc1Cl` (centres unmarked) [Example 70, 2-[5-Chloro-2-(12-cyclopropanecarbonyl-12-aza-tricyclo[7.2.1.0*2,7*]dodeca-2(7),3,5-trien-4-ylamino)-pyrimidin-4-ylamino]-N-methyl-benzamide], the IC50 in assay [1] (setting [9]) and in assay [2] (setting [10]) was < 100 nM throughout.

On to `CNC(=O)C1C2C=CC(C2)C1Nc1nc(Nc2ccc3c(c2)CCC(N2CCOCC2)CC3)ncc1Cl` (stereo not drawn) [Example 624, (2-exo-3-exo)-3-[5-Chloro-2-(7-morpholin-4-yl-6,7,8,9-tetrahydro-5H-benzocyclohepten-2-ylamino)-pyrimidin-4-ylamino]-bicyclo[2.2.1]hept-5-ene-2-carboxylic acid methylamide], for which the IC50 was < 100 nM in assay [1] (setting [7]) and 100 to 1000 nM in assay [2] (setting [8]).

For `CN1CCNCc2cc(OCC(F)(F)F)c(Nc3ncc(Cl)c(N[C@@H]4CCCC[C@H]4NS(C)(=O)=O)n3)cc21` [Example 497, N-((1R,2R)-2-{5-Chloro-2-[1-methyl-7-(2,2,2-trifluoro-ethoxy)-2,3,4,5-tetrahydro-1H-benzo[e][1,4]diazepin-8-ylamino]-pyrimidin-4-ylamino}-cyclohexyl)-methanesulfonamide], the IC50 in assay [1] (setting [9]) was in the range of 100 to 1000 nM; in assay [2] (setting [10]) it was 1000 to 10000 nM.

Turning to `COCCN1CCc2ccc(Nc3ncc(Cl)c(NC4C5C=CC(C5)C4C(N)=O)n3)cc2CC1` (stereo not drawn) [Example 310, (2-exo,3-exo)-3-{5-Chloro-2-[3-(2-methoxy-ethyl)-2,3,4,5-tetrahydro-1H-benzo[d]azepin-7-ylamino]-pyrimidin-4-ylamino}-bicyclo[2.2.1]hept-5-ene-2-carboxylic acid amide], the values for the IC50 in assay [1] (setting [9]) and in assay [2] (setting [10]) were < 100 nM and 100 to 1000 nM, respectively.

In the case of `CNC(=O)c1cccc(F)c1Nc1nc(Nc2ccc3c(c2)NC(=O)CN(CCOC)C3)ncc1Cl` [Example 1862, 2-{5-Chloro-2-[4-(2-methoxy-ethyl)-2-oxo-2,3,4,5-tetrahydro-1H-benzo[e][1,4]diazepin-8-ylamino]-pyrimidin-4-ylamino}-3-fluoro-N-methyl-benzamide], the IC50 in assay [1] (setting [3]) was 100 to 1000 nM; in assay [2] (setting [4]), < 100 nM.

As to `COc1cc2c(cc1Nc1ncc(Cl)c(Nc3ccc(N4CCOCC4)cc3OC)n1)CCN(C(CF)CF)CC2` [Example 1391, Chloro-N(2)-[3-(2-fluoro-1-fluoromethyl-ethyl)-8-methoxy-2,3,4,5-tetrahydro-1H-benzo[d]azepin-7-yl]-N(4)-(2-methoxy-4-morpholin-4-yl-phenyl)-pyrimidine-2,4-diamine], the IC50 is < 100 nM in assay [1] (setting [5]) and > 10000 nM in assay [2] (setting [6]).

As for `CCN1CCc2ccc(Nc3ncc(C(F)(F)F)c(Nc4ccc(N5CCOCC5)cc4OC)n3)cc2CC1` [Example 924, N(2)-(3-Ethyl-2,3,4,5-tetrahydro-1H-benzo[d]azepin-7-yl)-N(4)-(2-methoxy-4-morpholin-4-yl-phenyl)-5-trifluoromethylpyrimidine-2,4-diamine], the IC50 was < 100 nM in assay [1] (setting [7]) and 100 to 1000 nM in assay [2] (setting [8]).

Regarding `CNC(=O)c1ccccc1Nc1nc(Nc2ccc3c(c2)CCN(C[C@@H](O)C(F)(F)F)CC3)ncc1Cl` [Example 448, 2-{5-Chloro-2-[3-((R)-3,3,3-trifluoro-2-hydroxy-propyl)-2,3,4,5-tetrahydro-1H-benzo[d]azepin-7-ylamino]-pyrimidin-4-ylamino}-N-methyl-benzamide], the IC50 in assay [1] (setting [9]) and in assay [2] (setting [10]) was < 100 nM throughout.

On to `CCN1C(=O)C(NC(=O)COC)CCc2c1ccc(Nc1ncc(Cl)c(Nc3ccccc3S(=O)(=O)N(C)C)n1)c2OC` (centres unmarked) [Example 1352, N-{7-[5-Chloro-4-(2-dimethylsulfamoyl-phenylamino)-pyrimidin-2-ylamino]-1-ethyl-6-methoxy-2-oxo-2,3,4,5-tetrahydro-1H-benzo[b]azepin-3-yl}-2-methoxy-acetamide], for which the IC50 is < 100 nM in assay [1] (setting [5]) and > 10000 nM in assay [2] (setting [6]).

For `CNC(=O)c1sccc1Nc1nc(Nc2ccc3c(c2)NC(=O)CCC3)ncc1Cl` [Example 1477, 3-[5-Chloro-2-(2-oxo-2,3,4,5-tetrahydro-1H-benzo[b]azepin-8-ylamino)-pyrimidin-4-ylamino]-thiophene-2-carboxylic acid methylamide], the IC50 in assay [1] (setting [3]) and in assay [2] (setting [4]) was 100 to 1000 nM in each case.

For the compound `COc1cc2c(cc1Nc1ncc(F)c(Nc3ccc(N4CCN(C)CC4)cc3OC)n1)CCN(CC(=O)N(C)C)CC2` [Example 793, 2-(7-{5-Fluoro-4-[2-methoxy-4-(4-methyl-piperazin-1-yl)-phenylamino]-pyrimidin-2-ylamino}-8-methoxy-1,2,4,5-tetrahydro-benzo[d]azepin-3-yl)-N,N-dimethyl-acetamide], the IC50 in assay [1] (setting [7]) was < 100 nM; in assay [2] (setting [8]), > 10000 nM.

`Cc1cccnc1-c1ccccc1Nc1nc(Nc2ccc3c(c2)CCC(O)CC3)ncc1Cl` (centres unmarked) [Example 1021, 2-{5-Chloro-4-[2-(3-methyl-pyridin-2-yl)-phenylamino]-pyrimidin-2-ylamino}-6,7,8,9-tetrahydro-5H-benzocyclohepten-7-ol]: the IC50 in assay [1] (setting [5]) lay within 100 to 1000 nM; in assay [2] (setting [6]), 1000 to 10000 nM.
